Test: in vitro
Conditions: human, hela cells, % viability

`N#Cc1ccc(C(=O)Nc2ccc3n(c2=O)C[C@H]2C[C@@H]3CN(C(=O)c3ccccc3)C2)cc1` [CBK289073] gave a viability at 28.5 h, 10 µM of 109%.
Molecule `CCc1nc2c(OCCOc3ccccc3)cccn2c1N(C=O)CC(=O)N(C)C` [CBK147510] has a viability at 28.5 h, 10 µM of 96.5%.
With `CC(C)C(=O)Nc1ccc(Oc2ccc(C(=O)O)c(C(=O)O)c2)cc1` [CBK263463] the viability at 28.5 h, 10 µM was 86.4%.
With `Cc1nnc(N/N=C/c2ccc(OC3CCCC3)cc2)nc1O` [CBK058025] the viability at 28.5 h, 10 µM was 104%.
`CCOc1cc(S(=O)(=O)NCc2ccncc2)ccc1Br` [CBK270147] gave a viability at 28.5 h, 10 µM of 82.3%.
`Cc1cc(Cl)ccc1CNS(=O)(=O)c1cccs1` [CBK044714] gave a viability at 28.5 h, 10 µM of 97%.
Work on `CCCc1cc(C(N)=O)c(NC(=O)c2cc(-c3ccc(C)o3)nc3ccccc23)s1` [CBK267766C] yielded a viability at 28.5 h, 10 µM of 90.9%.
`CCNc1nnc(SCCC(=O)N2CCN(c3ccc(F)cc3)CC2)s1` [CBK305058] gave a viability at 28.5 h, 10 µM of 100%.
For `Cc1ccc(-c2nccnc2OCCC(C)C)c(C)c1` [CBK106988], the viability at 28.5 h, 10 µM was 102%.
Work on `CC(c1ccc(F)c(F)c1)N(C)C(=O)Cn1cnnc1[S+](C)[O-]` (stereo not drawn) [CBK305311] yielded a viability at 28.5 h, 10 µM of 105%.
For `COCc1cccc(-c2ncc(OC)nc2NC(=O)c2c(C)noc2C)c1` [CBK145237], the viability at 28.5 h, 10 µM was 95.6%.
With `Cc1cnc(C)c(N2CCN(C(=O)NCCSc3nncn3C)CC2)n1` [CBK306531] the viability at 28.5 h, 10 µM was 92.9%.
`CCOc1ccc(-c2noc(CCC(=O)NC)n2)cc1OC` [CBK269226] showed a viability at 28.5 h, 10 µM of 86.4%.
With `CCOc1ccc(C(=O)NC(=S)Nc2sc(C)c(C)c2C#N)cc1Cl` [CBK268900] the viability at 28.5 h, 10 µM was 91.8%.
For `O=C(c1ccccc1)n1c(=S)nc2n(c1=S)CCN2` [CBK021794], the viability at 28.5 h, 10 µM was 84.3%.
In the case of `O=C(c1ccc2nc[nH]c2c1)N1Cc2ccccc2C1` [CBK200322], the viability at 28.5 h, 10 µM is reported as 103%.
In the case of `O=[N+]([O-])c1cc([N+](=O)[O-])c(Nc2ccncc2)c([N+](=O)[O-])c1Nc1ccncc1` [CBK278276], the viability at 28.5 h, 10 µM is reported as 96.1%.
`COc1ccc(Sc2nc3ccccc3nc2N2CCCC2)cc1OC` [CBK093797] gave a viability at 28.5 h, 10 µM of 101%.
`CC(C)NC(=O)Cn1nc(-c2cc3c(s2)CCC3)oc1=O` [CBK283801] showed a viability at 28.5 h, 10 µM of 88.3%.
`C[C@@H](c1ccccc1)n1c(=O)[nH]c2ncc(-c3cccc(/C=C/C(=O)O)c3)nc21` [CBK065040] gave a viability at 28.5 h, 10 µM of 106%.
`Cc1cc(N2C(=O)CC(N3CCN(c4ccc(C(=O)c5cccs5)cc4)CC3)C2=O)no1` (stereo not drawn) [CBK268701] showed a viability at 28.5 h, 10 µM of 84.4%.
`Cc1n[nH]c(NC(=O)/C=C/C(=O)O)c1-c1ccc(F)cc1` [CBK287068] gave a viability at 28.5 h, 10 µM of 96.7%.
In the case of `Cc1cc(N2CCCN(C(=O)CCCOc3ccccc3)CC2)ccn1` [CBK307052], the viability at 28.5 h, 10 µM is reported as 86.6%.
`O=C(NCC1CCCO1)NC(=O)c1nsc2ccccc12` (stereo not drawn) [CBK019827] showed a viability at 28.5 h, 10 µM of 113%.
`CC(C)(C)NC(=O)CN1CCC(c2ccccc2F)CC1` [CBK283499] gave a viability at 28.5 h, 10 µM of 92.1%.
In the case of `CC(C)Oc1ncccc1OCc1ccccc1` [CBK001457], the viability at 28.5 h, 10 µM is reported as 124%.
`Cc1csc(NC(=O)CN2CCC(c3ccccc3F)CC2)n1` [CBK283569] showed a viability at 28.5 h, 10 µM of 109%.
Work on `COc1cccc(CN2CCN(C(=O)N3CCCCC3)[C@@H](C)C2)c1` [CBK284266] yielded a viability at 28.5 h, 10 µM of 95%.
`CC(=O)Nc1ccc(Oc2c(F)c(F)c(/C=C/CN3CCOCC3)c(F)c2F)cc1` [CBK269302C] showed a viability at 28.5 h, 10 µM of 89%.
In the case of `COc1ccc2cc(CNC(Cc3ccccc3)c3ccccc3)c(Cl)nc2c1` (stereo not drawn) [CBK295357], the viability at 28.5 h, 10 µM is reported as 93.3%.
`O=C(O)CCCC(=O)Nc1ccc(C(=O)O)cc1` [CBK261534] gave a viability at 28.5 h, 10 µM of 86.5%.
Molecule `CCN1CCOC(CNc2nc(-c3ccncc3)nc3c2CCC3)C1` (stereo not drawn) [CBK306215] has a viability at 28.5 h, 10 µM of 88.4%.
For `Cc1cc(O)cc(=O)n1Cc1ccccn1` [CBK291159], the viability at 28.5 h, 10 µM was 91.8%.
With `Cc1cc(C)nc(SCC(=O)N2c3ccccc3C(C)(c3ccc(Cl)cc3)CC2(C)C)n1` (stereo not drawn) [CBK073872] the viability at 28.5 h, 10 µM was 110%.
Work on `S=C(NCc1ccc(Cl)cc1)Nc1ccncc1` [CBK016651] yielded a viability at 28.5 h, 10 µM of 79.5%.
For `CC1(C)Cc2c(ccc3ccccc23)C(CCN2CCCCC2)=N1` [CBK261746], the viability at 28.5 h, 10 µM was 116%.

— PMC12040169 (PLOS Biology, 2025)
